Where two headings read alike, the source gives them in different places.
System: PKMYT1 (CDK1 pThr14) in FUOV1 cells
Experiment: PKMYT1 cell-based activity assay, CDK1 pThr14 AlphaLISA in FUOV1 cells
Conditions: read-out: FUOV-1 CDK1 pThr14 IC50
Experimental: To determine compound IC50 (PKMYT1 cell-based activity assay, CDK1 pThr14 AlphaLISA), FUOV1 cells were plated into a 96-well TC-treated culture plate at 50000 cells/well in a final volume of 100 μL of media. The plates were then allowed to equilibrate in a biological safety cabinet for 30 minutes before being placed in a humidified incubator at 37 C and 5% CO2 overnight. The next day, 2 μL of PKMYT1 inhibitors or DMSO were diluted in 400 μL of warmed culture media in a 96-well block using a Biomek FX liquid handler. Compounds were mixed in media and then 25 μL was dispensed into each well of the 96-well cell plate. Plates were centrifuged at 300 g for 10 seconds and then placed in the incubator for 2 hours. After the 2-hour incubation with compound, media was removed via aspiration using a multichannel pipette. 30 μL of 1× AlphaLISA lysis buffer (Perkin Elmer) supplemented with protease and phosphatase inhibitors as well as 1 mM PMSF, was added to each well. Plates were rotated at 500 g for 20 minutes to facilitate lysis. Plates were then sealed with aluminum foil and frozen at −80° C. for at least 1 hour. Lysates were thawed at 37° C. for 10 minutes, then 10 μL of each lysate was transferred in duplicate to a white 384-well assay plate. Antibody mixture was prepared in 1× AlphaLISA assay buffer (Perkin Elmer) containing antibodies (5 nM final concentration for rabbit pThr14-CDK1 from Abcam #ab58509 and mouse total CDK1 from ThermoFisher Scientific #33-1800). 5 μL of antibody mixture was added to each well of the assay plate. The assay plate was sealed and stored at 4° C. overnight. The next day, AlphaLISA bead mixture (Perkin Elmer) was prepared in 1× AlphaLISA assay buffer. Anti-rabbit IgG Acceptor (Perkin Elmer #AL104C) and anti-mouse IgG Donor beads (Perkin Elmer #AS104D) were prepared to a concentration of 80 μg/ml in assay buffer. 5 μL of bead mixture was added to each well of the assay plate (20 μg/ml final concentration for each bead). The plate was protected from light and incubated for 2 hours at room temperature. After a 2-hour incubation with beads, the plate was read using the Perkin Elmer EnVision Multimode plate reader with excitation at 680 nm and emission at 615 nm.

| SMILES | IC50 (2 h, 2 h compound incubation) | other results |
| --- | --- | --- |
| Cc1ccc2[nH]ncc2c1-c1nc(-c2cc(F)cnc2N[C@H]2C[C@H](O)C2)nc(C(N)=O)c1N [Compound 690] | 16 nM | – |
| Cc1ccc2[nH]ncc2c1-c1nc(-c2cccnc2NC2(C)CCOC2)nc(C(N)=O)c1N (stereo not shown) [Compound 591] | 22 nM | – |
| Cc1ccc(Cl)nc1Nc1ncccc1-c1nc(C(N)=O)c(N)c(-c2c(C)ccc3[nH]ncc23)n1 [Compound 742] | 5 nM | – |
| Cc1ccc2[nH]ncc2c1-c1nc(-c2cc(F)ccc2NC(=O)C2(C)CCOCC2)nc(C(N)=O)c1N [Compound 505] | 36 nM | – |
| Cc1c(F)cc2[nH]ncc2c1-c1nc(-c2cc(F)cnc2NCC(C)(C)C#N)nc(C(N)=O)c1N [Compound 859] | – | IC50 (2 h, 2 hours with compound): 41 nM |
| Cc1ccc2[nH]ncc2c1-c1nc(-c2ccc(F)cc2Nc2nccc(C(F)(F)F)n2)nc(C(N)=O)c1N [Compound 572] | 764 nM | – |
| Cc1ccc2[nH]ncc2c1-c1nc(-c2cccnc2Nc2nc(F)ccc2F)nc(C(N)=O)c1N [Compound 660] | 2 nM | – |
| CO[C@H]1C[C@H](Nc2ncccc2-c2nc(C(N)=O)c(N)c(-c3c(C)ccc4[nH]ncc34)n2)C1 [Compound 551] | 151 nM | – |
| Cc1ccc2[nH]ncc2c1-c1nc(-c2cccnc2Nc2ncccc2C2CC2)nc(C(N)=O)c1N [Compound 729] | 57 nM | – |
| Cc1ccc(-c2nc(C(N)=O)c(N)c(-c3c(C)ccc4[nH]ncc34)n2)c(Nc2ncccn2)n1 [Compound 764] | 25 nM | – |
| Cc1ccc2[nH]ncc2c1-c1nc(-c2cccnc2NC2CCOCC2(C)C)nc(C(N)=O)c1N (stereo not shown) [Compound 596] | 72 nM | – |
| Cc1ccc2[nH]ncc2c1-c1nc(-c2cc(F)ccc2NS(C)(=O)=O)nc(C(N)=O)c1N [Compound 491] | 45 nM | – |
| Cc1ccc2[nH]ncc2c1-c1nc(-c2cccnc2Nc2ccc(F)nc2F)nc(C(N)=O)c1N [Compound 641] | 392 nM | – |
| Cc1cccnc1Nc1nc(C#N)ccc1-c1nc(C(N)=O)c(N)c(-c2c(C)ccc3[nH]ncc23)n1 [Compound 737] | 34 nM | – |
| Cc1ccc2[nH]ncc2c1-c1nc(-c2ccc(Cl)nc2NC2CC(F)(F)C2)nc(C(N)=O)c1N [Compound 802] | – | IC50 (2 h, 2 hours with compound): 743 nM |
| Cc1ccc2[nH]ncc2c1-c1nc(-c2cc(F)ccc2Nc2ncc(F)cn2)nc(C(N)=O)c1N [Compound 492] | 163 nM | – |
| Cc1ccc2[nH]ncc2c1-c1nc(-c2ccc(F)cc2Nc2nccs2)nc(C(N)=O)c1N [Compound 581] | 40 nM | – |
| Cc1ccc2[nH]ncc2c1-c1nc(-c2ccc(C(F)F)nc2Nc2ncccc2F)nc(C(N)=O)c1N [Compound 931] | – | IC50 (2 h, 2 hours with compound): 14 nM |
| Cc1ccc2[nH]ncc2c1-c1nc(-c2ccc(F)cc2Nc2nccc(C(C)(C)C)n2)nc(C(N)=O)c1N [Compound 576] | 4580 nM | – |
| COCCNc1ccc2oc3c(C(N)=O)c(N)c(-c4c(C)ccc5[nH]ncc45)cc3c2n1 [Compound 558, 7-amino-2-((2-methoxyethyl)amino)-8-(5-methyl-1H-indazol-4-yl)benzofuro[3,2-b]pyridine-6-carboxamide] | 95 nM | – |
| Cc1ccc2[nH]ncc2c1-c1nc(-c2cc(F)cnc2OC2CC(C)(O)C2)nc(C(N)=O)c1N (stereo not shown) [Compound 841] | – | IC50 (2 h, 2 hours with compound): 1120 nM |
| COCCOc1ccc2oc3c(C(N)=O)c(N)c(-c4c(C)ccc5[nH]ncc45)cc3c2n1 [Compound 556] | 132 nM | – |
| Cc1cc(F)c2[nH]ncc2c1-c1nc(-c2ccc(F)nc2Nc2nccnc2C(F)F)nc(C(N)=O)c1N [Compound 868] | – | IC50 (2 h, 2 hours with compound): 139 nM |
| Cc1ccc2[nH]ncc2c1-c1nc(-c2ccc(Cl)nc2Nc2ncccc2C#N)nc(C(N)=O)c1N [Compound 935] | – | IC50 (2 h, 2 hours with compound): 8 nM |
| Cc1cnc(Nc2cc(F)ccc2-c2nc(C(N)=O)c(N)c(-c3c(C)ccc4[nH]ncc34)n2)nc1 [Compound 523] | 269 nM | – |

| SMILES | IC50 (2 h, 2 h compound incubation) | other results |
| --- | --- | --- |
| Cc1cc(F)c2[nH]ncc2c1-c1nc(-c2ccc(F)nc2Nc2nc(F)ccc2F)nc(C(N)=O)c1N [Compound 879] | – | IC50 (2 h, 2 hours with compound): 7 nM |
| Cc1ccc2[nH]ncc2c1-c1nc(-c2cc(F)ncc2NC2CC(F)(F)C2)nc(C(N)=O)c1N [Compound 844] | – | IC50 (2 h, 2 hours with compound): 38 nM |
| Cc1ccc2[nH]ncc2c1-c1nc(-c2cc(F)ccc2NS(=O)(=O)C(C)C)nc(C(N)=O)c1N [Compound 530] | 59 nM | – |
| Cc1ccc2[nH]ncc2c1-c1nc(-c2cccnc2Nc2cccnc2)nc(C(N)=O)c1N [Compound 595] | – | IC50 (2 h compound incubation): 1540 nM |
| COc1ccc(-c2nc(C(N)=O)c(N)c(-c3c(C)ccc4[nH]ncc34)n2)c(Nc2ncccc2C)n1 [Compound 709] | 18 nM | – |
| Cc1ccc2[nH]ncc2c1-c1nc(-c2cccnc2NC2(C)CCOCC2)nc(C(N)=O)c1N [Compound 544] | 6 nM | – |
| Cc1ccc2[nH]ncc2c1-c1nc(-c2ccc(F)cc2Nc2ccccn2)nc(C(N)=O)c1N [Compound 516] | 30 nM | – |
| Cc1ccc2[nH]ncc2c1-c1nc(-c2ccc(F)nc2Nc2nc(C(F)F)ccc2F)nc(C(N)=O)c1N [Compound 947] | – | IC50 (2 h, 2 hours with compound): 4 nM |
| Cc1ccc2[nH]ncc2c1-c1nc(-c2cccnc2Nc2cccc(F)n2)nc(C(N)=O)c1N [Compound 659] | 185 nM | – |
| Cc1ccc2[nH]ncc2c1-c1cc2c(oc3ccc(F)nc32)c(C(N)=O)c1N [Compound 557] | 416 nM | – |
| Cc1ccc(C)c(Nc2ncccc2-c2nc(C(N)=O)c(N)c(-c3c(C)ccc4[nH]ncc34)n2)n1 [Compound 707] | 38 nM | – |
| Cc1ccc2[nH]ncc2c1-c1nc(-c2cccnc2Nc2nc(C#N)ccc2Cl)nc(C(N)=O)c1N [Compound 743] | 3 nM | – |
| Cc1ncc(F)c(Nc2cc(F)ccc2-c2nc(C(N)=O)c(N)c(-c3c(C)ccc4[nH]ncc34)n2)n1 [Compound 714] | 13 nM | – |
| Cc1ccc2[nH]ncc2c1-c1cc2c(oc3ccc(OCC(C)(C)C#N)nc32)c(C(N)=O)c1N [Compound 559] | 1290 nM | – |
| Cc1ccc(Nc2ncccn2)c(-c2nc(C(N)=O)c(N)c(-c3c(C)ccc4[nH]ncc34)n2)c1 [Compound 646] | 91 nM | – |
| Cc1ccc2[nH]ncc2c1-c1nc(-c2cc(F)cnc2N[C@@H]2CCOC[C@H]2O)nc(C(N)=O)c1N [Compound 799, 5-amino-2-(5-fluoro-2-(((3S,4R)-3-hydroxytetrahydro-2H-pyran-4-yl)amino)pyridin-3-yl)-6-(5-methyl-1H-indazol-4-yl)pyrimidine-4-carboxamide] | – | IC50 (2 h, 2 hours with compound): > 10000 nM |
| Cc1ccc2[nH]ncc2c1-c1nc(-c2cccnc2NCCN2CCOCC2)nc(C(N)=O)c1N [Compound 703] | 680 nM | – |
| Cc1ccc2[nH]ncc2c1-c1nc(-c2cc(F)cnc2N[C@@H](C)C2CC2)nc(C(N)=O)c1N [Compound 710] | 19 nM | – |
| Cc1ccc2[nH]ncc2c1-c1nc(-c2ccc(F)cc2Nc2nccc(N3CCOCC3)n2)nc(C(N)=O)c1N [Compound 577] | 702 nM | – |
| Cc1cc(F)c2[nH]ncc2c1-c1nc(-c2ccc(C(F)F)nc2Nc2nccnc2Cl)nc(C(N)=O)c1N [Compound 909] | – | IC50 (2 h, 2 hours with compound): 107 nM |
| Cc1ccc2[nH]ncc2c1-c1nc(-c2ccc(F)cc2Nc2cncnc2)nc(C(N)=O)c1N [Compound 541, 5-amino-2-(4-fluoro-2-(pyrimidin-5-ylamino)phenyl)-6-(5-methyl-1H-indazol-4-yl)pyrimidine-4-carboxamide] | 47 nM | – |
| Cc1ccc2[nH]ncc2c1-c1nc(-c2cc(F)cnc2N[C@H]2COC[C@@H]2O)nc(C(N)=O)c1N [Compound 813] | – | IC50 (2 h, 2 hours with compound): 123 nM |
| Cc1ccc2[nH]ncc2c1-c1nc(-c2cccnc2NCC2(C)COC2)nc(C(N)=O)c1N [Compound 661] | 383 nM | – |
| Cc1ccc2[nH]ncc2c1-c1nc(-c2cccnc2N[C@@H]2CC[C@H](O)C2)nc(C(N)=O)c1N [Compound 783] | 35 nM | – |
